# Measured values reported in patent US9302991B2, “Arylamide derivatives as TTX-S blockers” (RaQualia Pharma Inc., priority 2010, dated 2016).
# pIC50: −log10 of the molar value.
# Target: T1, human Nav1.3 channels (Homo sapiens, UniProt Q9NY46)
# T1 construct: expressed in transfected cells; host or cells: HEK293
# Experiment: FRET assay, human Nav1.3 (EFS on FDSS)
# Assay type: cell-based
# Settings: HEK293 cells expressing human Nav1.3, read-out: IC50 against Nav1.3
# Experimental: The inhibitory activities of compounds against voltage gated sodium channels are determined by methodology well known in the art.
# The ability of the aryl substituted carboxamide derivatives of the formula (I) to inhibit the NaV1.3, Nav1.7 and Nav1.5 channels is measured by Fluorescence Resonance Energy Transfer (FRET) assay and electrophysiology assay described below.
# This screen is used to determine the effects of compounds on human Nav1.3, human Nav1.7, and human Nav1.5 channels, utilising electrical field stimulation (EFS) system in 96-well plate format on FDSS (Hamamatsu Photonics) platform. The change of membrane potential is monitored with FRET dye pair, oxonol (DiSBAC2(3)) and coumarin (CC2-DMPE).
# Each HEK293 cells expressing human Nav1.3 channels and HEK293 cells expressing human Nav1.5 channels are grown in T225 flasks, in a 5% CO2 humidified incubator to about 80% confluence. Media composition consists of Dulbecco's Modified Eagle Medium (high glucose), 10% FCS, 100 units/mL Penicillin, 100 microgram/mL Streptomycin and 500 microgram/mL Geneticine.
# Protocol: • Seed each cell lines (1×10^5 cells/well) into poly-D-lysine coated 96-well plates prior to experimentation. • Incubate at 37° C. in 5% CO2 for 24 hours. • Wash each well with assay buffer (140 mM NaCl, 4.5 mM KCl, 10 mM D-Glucose, 2 mM CaCl2, 1 mM MgCl2, 10 mM HEPES, pH 7.4 adjusted with NaOH) twice. • Add 1st loading solution containing 10 microM CC2-DMPE and 0.06% Pluronic F-127 in assay buffer. • Incubate the plate at room temperature in dark for 1 hour. • Remove 1st loading solution and added 2nd loading solution containing 15 microM DiSBAC2(3), 0.555 mM VABSC-1 and 0.004% Pluronic F-127 in assay buffer. • Place the plate under the dark at room temperature for 25 minutes. • Add compound solutions into the assay plate. • Set the assay plate in FDSS and placed an EFS device on the plate. • Measure EFS-induced fluorescent response by FDSS.
# The data are analyzed and reported as normalized ratios of intensities measured at […]. The process of calculating these ratios is performed as follows:
# This analysis is performed using a computerized specific program designed for FDSS generated data. Fluorescence ratio values are plotted using XLfit to determine an IC50 value for each compound.
# T1 sequence (Q9NY46 whole entry): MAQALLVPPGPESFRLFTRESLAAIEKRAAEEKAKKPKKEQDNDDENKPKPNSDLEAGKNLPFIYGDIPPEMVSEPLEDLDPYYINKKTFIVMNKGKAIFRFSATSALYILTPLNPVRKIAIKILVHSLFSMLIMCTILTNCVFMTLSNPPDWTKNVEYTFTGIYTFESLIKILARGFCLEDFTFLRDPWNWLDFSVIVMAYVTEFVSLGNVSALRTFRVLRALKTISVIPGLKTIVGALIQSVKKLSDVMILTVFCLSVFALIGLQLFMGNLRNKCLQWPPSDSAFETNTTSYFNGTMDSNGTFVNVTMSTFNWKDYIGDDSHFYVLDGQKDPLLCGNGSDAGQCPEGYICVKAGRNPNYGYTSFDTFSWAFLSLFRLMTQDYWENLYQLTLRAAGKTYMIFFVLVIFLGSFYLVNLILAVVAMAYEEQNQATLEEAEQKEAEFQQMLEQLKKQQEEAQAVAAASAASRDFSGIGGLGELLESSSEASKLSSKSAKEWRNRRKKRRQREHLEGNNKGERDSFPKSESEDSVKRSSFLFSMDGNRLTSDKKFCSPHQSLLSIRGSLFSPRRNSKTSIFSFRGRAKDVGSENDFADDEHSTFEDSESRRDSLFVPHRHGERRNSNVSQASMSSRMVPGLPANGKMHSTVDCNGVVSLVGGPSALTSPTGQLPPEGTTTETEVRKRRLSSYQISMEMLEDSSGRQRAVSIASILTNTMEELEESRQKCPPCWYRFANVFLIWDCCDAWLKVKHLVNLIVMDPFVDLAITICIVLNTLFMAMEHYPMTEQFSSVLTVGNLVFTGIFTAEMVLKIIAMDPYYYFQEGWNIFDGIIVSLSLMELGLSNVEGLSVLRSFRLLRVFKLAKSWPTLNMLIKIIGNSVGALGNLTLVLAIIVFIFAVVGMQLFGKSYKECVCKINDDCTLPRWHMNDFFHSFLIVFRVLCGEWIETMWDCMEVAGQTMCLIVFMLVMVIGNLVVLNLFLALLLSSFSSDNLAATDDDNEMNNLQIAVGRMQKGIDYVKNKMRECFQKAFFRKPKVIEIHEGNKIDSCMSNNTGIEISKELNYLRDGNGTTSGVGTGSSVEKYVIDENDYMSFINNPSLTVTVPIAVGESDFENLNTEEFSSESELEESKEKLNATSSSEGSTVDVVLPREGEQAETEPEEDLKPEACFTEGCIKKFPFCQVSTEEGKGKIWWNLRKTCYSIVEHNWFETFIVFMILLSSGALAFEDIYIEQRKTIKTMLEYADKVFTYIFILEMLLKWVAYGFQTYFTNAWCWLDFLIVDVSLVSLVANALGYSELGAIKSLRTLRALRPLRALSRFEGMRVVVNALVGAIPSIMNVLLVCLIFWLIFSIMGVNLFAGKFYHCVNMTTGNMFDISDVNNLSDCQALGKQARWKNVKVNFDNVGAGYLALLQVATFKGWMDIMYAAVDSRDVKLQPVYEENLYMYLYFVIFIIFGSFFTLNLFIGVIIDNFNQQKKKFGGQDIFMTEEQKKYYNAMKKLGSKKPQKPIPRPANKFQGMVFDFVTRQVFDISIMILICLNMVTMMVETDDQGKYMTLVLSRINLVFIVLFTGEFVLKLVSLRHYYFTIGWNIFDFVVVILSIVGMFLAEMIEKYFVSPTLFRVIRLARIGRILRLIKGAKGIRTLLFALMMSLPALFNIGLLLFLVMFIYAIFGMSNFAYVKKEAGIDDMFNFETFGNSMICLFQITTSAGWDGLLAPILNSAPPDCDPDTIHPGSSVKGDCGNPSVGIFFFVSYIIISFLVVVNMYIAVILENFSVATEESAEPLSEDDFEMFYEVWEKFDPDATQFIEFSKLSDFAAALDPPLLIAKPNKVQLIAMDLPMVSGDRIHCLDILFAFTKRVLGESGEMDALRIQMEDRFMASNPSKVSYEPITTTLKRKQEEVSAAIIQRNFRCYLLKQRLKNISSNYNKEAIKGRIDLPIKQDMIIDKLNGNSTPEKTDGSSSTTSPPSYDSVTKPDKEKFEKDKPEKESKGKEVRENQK
row,pIC50,Compound
1,> 6.00,"COCCNc1nc(C)cc(C(=O)NC(C)c2cnc(OCC(F)(F)F)c(C)c2)n1 (single isomer, unassigned) [Example 475, 2-((2-methoxyethyl)amino)-6-methyl-N-(1-(5-methyl-6-(2,2,2-trifluoroethoxy)pyridin-3-yl)ethyl)pyrimidine-4-carboxamide]"
2,> 6.00,"Cc1cc(C(C)NC(=O)c2ccc3cccc(O)c3n2)cnc1OCC(F)(F)F (single isomer, unassigned) [Example 535, 8-hydroxy-N-(1-(5-methyl-6-(2,2,2-trifluoroethoxy)pyridin-3-yl)ethyl)quinoline-2-carboxamide]"
3,> 6.00,"C=C(C)C(=O)Nc1cc(C(=O)NC(C)c2ccc(OCC(F)(F)F)nc2)cc(C)n1 (single isomer, unassigned) [Example 571, 2-methacrylamido-6-methyl-N-(1-(6-(2,2,2-trifluoroethoxy)pyridin-3-yl)ethyl)isonicotinamide]"
4,> 6.00,"CC(C)C(=O)Nc1cc(C(=O)NC(C)c2ccc(OCC(F)(F)C(F)(F)F)nc2)ccn1 (single isomer, unassigned) [Example 690, 2-isobutyramido-N-(1-(6-(2,2,3,3,3-pentafluoropropoxy)pyridin-3-yl)ethyl)isonicotinamide]"
5,> 6.00,"CCC(=O)Nc1cc(C(=O)NC(C)c2ccc(OCC(F)(F)C(F)(F)F)nc2)cc(C)n1 (single isomer, unassigned) [Example 692, 2-methyl-N-(1-(6-(2,2,3,3,3-pentafluoropropoxy)pyridin-3-yl)ethyl)-6-propionamidoisonicotinamide]"
6,> 6.00,"CC(NC(=O)c1ccnc(NC(=O)C2CC2)n1)c1ccc(OCC(F)(F)C(F)(F)F)nc1 (single isomer, unassigned) [Example 694, 2-(cyclopropanecarboxamido)-N-(1-(6-(2,2,3,3,3-pentafluoropropoxy)pyridin-3-yl)ethyl)pyrimidine-4-carboxamide]"
7,> 6.00,"Cc1cc(C(=O)NC(C)c2ccc(OCC(F)F)c(Cl)c2)nc(NC(=O)C2CC2)n1 (single isomer, unassigned) [Example 984, N-(1-(3-chloro-4-(2,2-difluoroethoxy)phenyl)ethyl)-2-(cyclopropanecarboxamido)-6-methylpyrimidine-4-carboxamide]"
8,> 6.00,"CC(=O)Nc1cc(C(=O)NCc2cnc(OCC(F)(F)F)c(Cl)c2)ccn1 [Example 93, 2-acetamido-N-((5-chloro-6-(2,2,2-trifluoroethoxy)pyridin-3-yl)methyl)isonicotinamide]"
9,> 6.00,"O=C(NCc1cnc(OCC(F)(F)F)c(Cl)c1)c1ccnc(NC(=O)C2CC2)c1 [Example 95, N-((5-chloro-6-(2,2,2-trifluoroethoxy)pyridin-3-yl)methyl)-2-(cyclopropanecarboxamido)isonicotinamide]"
10,> 6.00,"CCC(=O)Nc1cc(C(=O)NCc2ccc(OCC(F)(F)F)nc2)ccn1 [Example 151, 2-propionamido-N-((6-(2,2,2-trifluoroethoxy)pyridin-3-yl)methyl)isonicotinamide]"
11,> 6.00,"CCC(=O)Nc1cc(C(=O)NCc2cccc(OCC(F)(F)F)n2)ccn1 [Example 464, 2-propionamido-N-((6-(2,2,2-trifluoroethoxy)pyridin-2-yl)methyl)isonicotinamide]"
12,> 6.00,"O=C(NCc1cccc(OCC(F)(F)F)n1)c1ccnc(NC(=O)C2CC2)c1 [Example 465, 2-(cyclopropanecarboxamido)-N-((6-(2,2,2-trifluoroethoxy)pyridin-2-yl)methyl)isonicotinamide]"

# Target: T2, human Nav1.7 channels (Homo sapiens, UniProt Q15858)
# T2 construct: expressed in transfected cells; host or cells: CHO
# Experiment: FRET assay, human Nav1.7 (EFS on FDSS)
# Assay type: cell-based
# Settings: CHO cells expressing human Nav1.7, read-out: IC50 against Nav1.7
# Method in brief: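 IC50 was derived from normalized 440 nm fluorescence ratios of the EFS-evoked membrane-potential response read on FDSS. Recombinant CHO cells were sequentially dye-loaded with coumarin/oxonol FRET pair at room temperature in pH 7.4 buffer before compound addition.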
# T2 sequence (Q15858 whole entry): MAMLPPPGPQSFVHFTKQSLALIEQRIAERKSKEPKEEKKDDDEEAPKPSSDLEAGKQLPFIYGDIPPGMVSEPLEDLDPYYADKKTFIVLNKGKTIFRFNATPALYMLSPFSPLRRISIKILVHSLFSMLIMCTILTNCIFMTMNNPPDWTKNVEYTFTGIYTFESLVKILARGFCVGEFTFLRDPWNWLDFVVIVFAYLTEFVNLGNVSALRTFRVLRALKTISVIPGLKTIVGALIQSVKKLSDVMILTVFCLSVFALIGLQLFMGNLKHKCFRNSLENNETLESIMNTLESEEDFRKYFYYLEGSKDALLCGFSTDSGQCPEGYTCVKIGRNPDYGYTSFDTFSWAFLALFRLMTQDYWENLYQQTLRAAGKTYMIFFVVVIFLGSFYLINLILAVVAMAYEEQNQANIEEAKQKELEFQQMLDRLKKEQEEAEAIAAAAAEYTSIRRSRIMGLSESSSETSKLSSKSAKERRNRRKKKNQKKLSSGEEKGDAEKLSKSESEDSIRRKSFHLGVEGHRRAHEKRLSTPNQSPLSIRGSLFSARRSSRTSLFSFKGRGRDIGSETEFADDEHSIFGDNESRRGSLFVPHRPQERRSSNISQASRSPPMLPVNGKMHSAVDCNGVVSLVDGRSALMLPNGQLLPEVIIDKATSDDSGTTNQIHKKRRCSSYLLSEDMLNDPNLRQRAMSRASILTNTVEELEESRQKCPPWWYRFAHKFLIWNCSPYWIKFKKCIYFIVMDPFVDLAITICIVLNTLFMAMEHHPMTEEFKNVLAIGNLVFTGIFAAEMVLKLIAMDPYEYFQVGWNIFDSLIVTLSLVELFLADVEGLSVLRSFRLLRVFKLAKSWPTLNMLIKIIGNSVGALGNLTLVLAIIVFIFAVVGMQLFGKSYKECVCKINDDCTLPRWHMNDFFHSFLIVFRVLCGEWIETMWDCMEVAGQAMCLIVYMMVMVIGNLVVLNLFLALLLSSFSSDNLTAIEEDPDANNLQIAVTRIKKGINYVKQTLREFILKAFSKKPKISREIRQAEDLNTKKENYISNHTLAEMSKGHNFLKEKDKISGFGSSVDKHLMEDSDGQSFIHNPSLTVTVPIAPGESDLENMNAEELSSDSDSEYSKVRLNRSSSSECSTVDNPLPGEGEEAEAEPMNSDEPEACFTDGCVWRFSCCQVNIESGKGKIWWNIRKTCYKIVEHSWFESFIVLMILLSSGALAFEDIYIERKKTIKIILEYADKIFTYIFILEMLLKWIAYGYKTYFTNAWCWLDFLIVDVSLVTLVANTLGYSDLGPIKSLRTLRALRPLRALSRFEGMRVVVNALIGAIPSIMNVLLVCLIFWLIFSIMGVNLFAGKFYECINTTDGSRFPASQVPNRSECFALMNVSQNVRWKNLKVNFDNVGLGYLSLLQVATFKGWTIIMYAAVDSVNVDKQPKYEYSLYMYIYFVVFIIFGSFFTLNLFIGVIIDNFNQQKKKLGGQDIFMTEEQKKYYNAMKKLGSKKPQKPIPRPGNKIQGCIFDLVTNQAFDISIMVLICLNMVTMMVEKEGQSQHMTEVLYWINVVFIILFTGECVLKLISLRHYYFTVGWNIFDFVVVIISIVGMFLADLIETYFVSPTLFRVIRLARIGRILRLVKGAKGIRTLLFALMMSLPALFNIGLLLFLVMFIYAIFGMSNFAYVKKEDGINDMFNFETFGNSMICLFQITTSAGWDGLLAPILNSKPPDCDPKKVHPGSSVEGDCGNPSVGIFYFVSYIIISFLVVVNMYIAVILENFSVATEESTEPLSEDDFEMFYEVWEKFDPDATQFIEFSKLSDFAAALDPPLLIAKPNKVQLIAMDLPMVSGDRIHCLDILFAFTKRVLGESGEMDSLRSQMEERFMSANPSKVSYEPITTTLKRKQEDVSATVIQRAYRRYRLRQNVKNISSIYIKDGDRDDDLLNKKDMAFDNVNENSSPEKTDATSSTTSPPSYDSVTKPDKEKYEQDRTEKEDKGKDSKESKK
row,pIC50,Compound
1,> 6.00,"Cc1cc(C(=O)NCc2ccc(OCC(F)F)c(C)c2)nc(NC(=O)C2CC2)n1 [Example 996, 2-(cyclopropanecarboxamido)-N-(4-(2,2-difluoroethoxy)-3-methylbenzyl)-6-methylpyrimidine-4-carboxamide]"
2,> 6.00,"CCC(=O)Nc1cc(C(=O)NCc2ccc(OCC(F)F)c(Cl)c2)ccn1 [Example 998, N-(3-chloro-4-(2,2-difluoroethoxy)benzyl)-2-propionamidoisonicotinamide]"
3,> 6.00,"Cc1cc(C(=O)NCc2ccc(OCC(F)F)c(Cl)c2)cc(NC(=O)C(C)C)n1 [Example 1003, N-(3-chloro-4-(2,2-difluoroethoxy)benzyl)-2-isobutyramido-6-methylisonicotinamide]"
4,> 6.00,"CC(=O)Nc1cc(C(=O)NCc2ccc(OCC(F)F)cc2C)cc(C)n1 [Example 1007, 2-acetamido-N-(4-(2,2-difluoroethoxy)-2-methylbenzyl)-6-methylisonicotinamide]"
5,> 6.00,"Cc1cc(C(=O)NCc2ccc(OCC(F)F)cc2C)cc(NC(=O)C(C)C)n1 [Example 1008, N-(4-(2,2-difluoroethoxy)-2-methylbenzyl)-2-isobutyramido-6-methylisonicotinamide]"
6,> 6.00,"CCC(=O)Nc1cc(C(=O)NCc2cccc(C(F)(F)F)c2F)ccn1 [Example 1012, N-(2-fluoro-3-(trifluoromethyl)benzyl)-2-propionamidoisonicotinamide]"
7,> 6.00,"CCC(=O)Nc1cc(C(=O)NCc2cccc(C(F)(F)F)c2OC)ccn1 [Example 1017, N-(2-methoxy-3-(trifluoromethyl)benzyl)-2-propionamidoisonicotinamide]"
8,> 6.00,"Cc1cc(C(=O)NCc2ccc(OCC(F)F)cc2Cl)cc(NC(=O)C(C)C)n1 [Example 1049, N-(2-chloro-4-(2,2-difluoroethoxy)benzyl)-2-isobutyramido-6-methylisonicotinamide]"
9,> 6.00,"COc1cc(CNC(=O)c2ccnc(NC(C)=O)c2)ccc1OCC(F)(F)F [Example 1078, 2-acetamido-N-(3-methoxy-4-(2,2,2-trifluoroethoxy)benzyl)isonicotinamide]"
10,> 6.00,"CC(=O)Nc1cc(C(=O)NCc2cnc(OCC(F)F)c(C3CC3)c2)cc(C)n1 [Example 1082, 2-acetamido-N-((5-cyclopropyl-6-(2,2-difluoroethoxy)pyridin-3-yl)methyl)-6-methylisonicotinamide]"
11,> 6.00,"COc1cc(CNC(=O)c2ccnc(NC(=O)C3CC3)c2)ccc1OCC(F)(F)F [Example 1102, 2-(cyclopropanecarboxamido)-N-(3-methoxy-4-(2,2,2-trifluoroethoxy)benzyl)isonicotinamide]"
12,> 6.00,"Cc1cc(C(=O)NCc2cccc(OCC(F)F)c2C)cc(NC(=O)C(C)C)n1 [Example 1131, N-(3-(2,2-difluoroethoxy)-2-methylbenzyl)-2-isobutyramido-6-methylisonicotinamide]"
13,> 6.00,"Cc1cc(C(=O)NCc2cnc(OCC(F)(F)F)c(Cl)c2)nc(NC(=O)C2CC2)n1 [Example 1147, N-((5-chloro-6(2,2,2-trifluoroethoxy)pyridin-3-yl)methyl)-2-(cyclopropanecarboxamido)-6-methylpyrimidine-4-carboxamide]"
14,> 6.00,"CCC(=O)Nc1cc(C(=O)NCc2ccc(OCC(F)F)nc2OC)ccn1 [Example 1152, N-((6-(2,2-difluoroethoxy)-2-methoxypyridin-3-yl)methyl)-2-propionamidoisonicotinamide]"
15,> 6.00,"COc1nc(OCC(F)F)ccc1CNC(=O)c1ccnc(NC(=O)C2CC2)c1 [Example 1153, 2-(cyclopropanecarboxamido)-N-((6-(2,2-difluoroethoxy)-2-methoxypyridin-3-yl)methyl)isonicotinamide]"
16,> 6.00,"COc1nc(OCC(F)F)ccc1CNC(=O)c1ccnc(NC(=O)C(C)C)c1 [Example 1154, N-((6-(2,2-difluoroethoxy)-2-methoxypyridin-3-yl)methyl)-2-isobutyramidoisonicotinamide]"
17,> 6.00,"COc1nc(OCC(F)F)ccc1CNC(=O)c1cc(C)nc(NC(C)=O)c1 [Example 1156, 2-acetamido-N-((6-(2,2-difluoroethoxy)-2-methoxypyridin-3-yl)methyl)-6-methylisonicotinamide]"
18,> 6.00,"COc1nc(OCC(F)F)ccc1CNC(=O)c1cc(C)nc(NC(=O)C(C)C)c1 [Example 1157, N-((6-(2,2-difluoroethoxy)-2-methoxypyridin-3-yl)methyl)-2-isobutyramido-6-methylisonicotinamide]"
